Laboratory results taken from ChEMBL document CHEMBL4825722, “Discovery of Potent Selective Nonzinc Binding Autotaxin Inhibitor BIO-32546” (ACS Med Chem Lett, 2021).

Tests used:
[1] = target: Lysophosphatidic acid receptor 1 (Homo sapiens, UniProt Q92633); assay: Inhibition of LPA1 (unknown origin)
[2] = Protein binding in rat plasma assessed as unbound fraction; assay type: ADME, cell-free
[3] = Tmax in C57BL/6 mouse plasma at 10 mg/kg, po; assay type: ADME, organism-based
[4] = Protein binding in human plasma assessed as unbound fraction at 2 uM by rapid equilibrium dialysis method; assay type: ADME, cell-free
Cytochrome P450 2C9 = Cytochrome P450 2C9 (Homo sapiens, UniProt P11712); assay: Inhibition of CYP2C9 in human liver microsomes incubated for 15 mins in presence of NADPH by LC-MS/MS analysis; assay type: ADME
[5] = Cmax in C57BL/6 mouse plasma at 2.32 mg/kg, iv; assay type: ADME, organism-based; parameters: route intravenous, dose 2.32 mg/kg
[6] = Oral bioavailability in rat at 10 mg/kg; assay type: ADME, organism-based; conditions: in vivo
[7] = Clearance in C57BL/6 mouse plasma at 2.32 mg/kg; assay type: ADME, organism-based
[8] = Volume of distribution at steady state in cynomolgus monkey at 0.2 mg/kg, iv; assay type: ADME, organism-based, Macaca fascicularis; conditions: in vivo, read-out: Vdss
[9] = AUC (0 to 24 hrs) in C57BL/6 mouse brain at 2.32 mg/kg, iv; assay type: ADME, organism-based; parameters: time < 24 hr, route intravenous, dose 2.32 mg/kg
[10] = AUC (0 to 24 hrs) in dog at 0.2 mg/kg, iv; assay type: ADME, organism-based, Canis lupus familiaris; parameters: time < 24 hr, route intravenous, dose 0.2 mg/kg; conditions: in vivo
Rattus norvegicus [11] = assay: Effect on po dosed Sprague-Dawley rat CFA inflammatory pain model assessed as reduction in LPA level administered day 2 post CFA challenge and measured after 6 hrs by LC-MS/MS analysis; conditions: dose 0.1-10 mg/kg
Rattus norvegicus [12] = assay: Effect on Sprague-Dawley rat CFA inflammatory […] model assessed as reduction in 20:4 LPA level at 10 mg/kg, po after 6 hrs by LC-MS/MS analysis; assay type: functional; parameters: scale not given: the % may be the effect or the level left
[13] = Drug concentration in rat brain at 10 mg/kg, po after 4 hrs; assay type: ADME, organism-based; conditions: read-out: Ct
[14] = Cmax in rat at 10 mg/kg, po; assay type: ADME, organism-based; parameters: route oral, dose 10 mg/kg; conditions: in vivo
[15] = Drug concentration in Sprague-Dawley rat at 3 mg/kg, po after 6 hrs by LC-MS/MS analysis; assay type: ADME, organism-based; conditions: in vivo, read-out: Drug uptake
[16] = Volume of distribution at steady state in rat at 1.0 mg/kg, iv; assay type: ADME, organism-based; conditions: in vivo, read-out: Vdss
[17] = target: Sphingosine 1-phosphate receptor 2 (Homo sapiens, UniProt O95136); assay: Inhibition of S1P2 (unknown origin)
hERG (KCNH2) = hERG (KCNH2) (Homo sapiens, UniProt Q12809); assay: Inhibition of human ERG at 1 uM by automated patch-clamp assay relative to control
Cytochrome P450 1A2 = target: T1, Cytochrome P450 1A2 (Homo sapiens, UniProt P05177); assay: Inhibition of CYP1A2 in human liver microsomes incubated for 15 mins in presence of NADPH by LC-MS/MS analysis; assay type: ADME
T1 sequence (P05177 whole entry): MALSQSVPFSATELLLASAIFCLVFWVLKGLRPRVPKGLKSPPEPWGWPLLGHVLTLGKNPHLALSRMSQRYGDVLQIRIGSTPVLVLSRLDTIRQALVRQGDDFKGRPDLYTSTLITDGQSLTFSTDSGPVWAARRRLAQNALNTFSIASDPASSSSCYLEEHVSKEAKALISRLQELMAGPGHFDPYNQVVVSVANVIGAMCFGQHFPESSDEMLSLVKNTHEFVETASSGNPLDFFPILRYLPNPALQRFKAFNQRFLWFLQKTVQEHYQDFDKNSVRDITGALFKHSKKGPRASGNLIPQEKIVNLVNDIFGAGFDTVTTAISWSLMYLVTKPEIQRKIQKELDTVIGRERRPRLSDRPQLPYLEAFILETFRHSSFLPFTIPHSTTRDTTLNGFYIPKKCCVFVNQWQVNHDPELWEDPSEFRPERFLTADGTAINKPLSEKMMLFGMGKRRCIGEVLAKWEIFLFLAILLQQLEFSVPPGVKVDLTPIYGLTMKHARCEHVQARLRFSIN

[18] = Drug concentration in Sprague-Dawley rat at 0.3 mg/kg, po after 6 hrs by LC-MS/MS analysis; assay type: ADME, organism-based; conditions: in vivo, read-out: Drug uptake
[19] = Half life in cynomolgus monkey at 0.2 mg/kg, iv; assay type: ADME, organism-based, Macaca fascicularis; conditions: in vivo
[20] = Cmax in C57BL/6 mouse plasma at 10 mg/kg, po; assay type: ADME, organism-based; parameters: route oral, dose 10 mg/kg
Cytochrome P450 2D6 = Cytochrome P450 2D6 (Homo sapiens, UniProt P10635); assay: Inhibition of CYP2D6 in human liver microsomes incubated for 15 mins in presence of NADPH by LC-MS/MS analysis; assay type: ADME
[21] = Protein binding in C57BL/6 mouse plasma assessed as unbound fraction; assay type: ADME, cell-free
[22] = AUC (0 to 24 hrs) in dog at 1.0 mg/kg, po; assay type: ADME, organism-based, Canis lupus familiaris; parameters: time < 24 hr, route oral, dose 1 mg/kg; conditions: in vivo
[23] = target: Lysophosphatidic acid receptor 2 (Homo sapiens, UniProt Q9HBW0); assay: Inhibition of LPA2 (unknown origin)
[24] = Volume of distribution at steady state in C57BL/6 mouse plasma at 2.32 mg/kg; assay type: ADME, organism-based; conditions: read-out: Vdss
[25] = target: Lysophosphatidic acid receptor 5 (Homo sapiens, UniProt Q9H1C0); assay: Inhibition of LPA5 (unknown origin)
[26] = Protein binding in C57BL/6 mouse brain assessed as unbound fraction; assay type: ADME, tissue-based
[27] = Half life in dog at 0.2 mg/kg, iv; assay type: ADME, organism-based, Canis lupus familiaris; conditions: in vivo
[28] = Drug concentration in mouse brain at 10 mg/kg, po; assay type: ADME, organism-based; conditions: in vivo
[29] = Clearance in cynomolgus monkey at 0.2 mg/kg, iv; assay type: ADME, organism-based, Macaca fascicularis; conditions: in vivo
[30] = AUC (0 to 24 hrs) in rat at 1 mg/kg, iv; assay type: ADME, organism-based; parameters: time < 24 hr, route intravenous, dose 1 mg/kg; conditions: in vivo
Cytochrome P450 2C19 = Cytochrome P450 2C19 (Homo sapiens, UniProt P33261); assay: Inhibition of CYP2C19 in human liver microsomes incubated for 30 mins in presence of NADPH by LC-MS/MS analysis; assay type: ADME
[31] = target: Sphingosine 1-phosphate receptor 3 (Homo sapiens, UniProt Q99500); assay: Inhibition of S1P3 (unknown origin)
Rattus norvegicus [32] = assay: Effect on Sprague-Dawley rat CFA inflammatory […] model assessed as reduction in 20:4 LPA level at 3 mg/kg, po after 6 hrs by LC-MS/MS analysis; assay type: functional; parameters: scale not given: the % may be the effect or the level left
[33] = Clearance in dog at 0.2 mg/kg, iv; assay type: ADME, organism-based, Canis lupus familiaris; conditions: in vivo
[34] = Oral bioavailability in C57BL/6 mouse at 10 mg/kg; assay type: ADME, organism-based; conditions: in vivo
[35] = AUC (0 to 24 hrs) in C57BL/6 mouse brain at 10 mg/kg, po; assay type: ADME, organism-based; parameters: time < 24 hr, route oral, dose 10 mg/kg
[36] = Cmax in cynomolgus monkey at 1.0 mg/kg, po; assay type: ADME, organism-based, Macaca fascicularis; parameters: route oral, dose 1 mg/kg; conditions: in vivo
[37] = Oral bioavailability in cynomolgus monkey at 1.0 mg/kg; assay type: ADME, organism-based, Macaca fascicularis; conditions: in vivo
[38] = AUC (0 to 24 hrs) in C57BL/6 mouse plasma at 2.32 mg/kg; assay type: ADME, organism-based; parameters: time < 24 hr, dose 2.32 mg/kg
[39] = Apparent permeability across apical to basolateral side in human Caco-2 cells incubated for 120 mins by lucifer yellow based LC-MS/MS analysis
[40] = Half life in C57BL/6 mouse plasma at 2.32 mg/kg; assay type: ADME, organism-based

Sequence of hERG (KCNH2) (Q12809 whole entry): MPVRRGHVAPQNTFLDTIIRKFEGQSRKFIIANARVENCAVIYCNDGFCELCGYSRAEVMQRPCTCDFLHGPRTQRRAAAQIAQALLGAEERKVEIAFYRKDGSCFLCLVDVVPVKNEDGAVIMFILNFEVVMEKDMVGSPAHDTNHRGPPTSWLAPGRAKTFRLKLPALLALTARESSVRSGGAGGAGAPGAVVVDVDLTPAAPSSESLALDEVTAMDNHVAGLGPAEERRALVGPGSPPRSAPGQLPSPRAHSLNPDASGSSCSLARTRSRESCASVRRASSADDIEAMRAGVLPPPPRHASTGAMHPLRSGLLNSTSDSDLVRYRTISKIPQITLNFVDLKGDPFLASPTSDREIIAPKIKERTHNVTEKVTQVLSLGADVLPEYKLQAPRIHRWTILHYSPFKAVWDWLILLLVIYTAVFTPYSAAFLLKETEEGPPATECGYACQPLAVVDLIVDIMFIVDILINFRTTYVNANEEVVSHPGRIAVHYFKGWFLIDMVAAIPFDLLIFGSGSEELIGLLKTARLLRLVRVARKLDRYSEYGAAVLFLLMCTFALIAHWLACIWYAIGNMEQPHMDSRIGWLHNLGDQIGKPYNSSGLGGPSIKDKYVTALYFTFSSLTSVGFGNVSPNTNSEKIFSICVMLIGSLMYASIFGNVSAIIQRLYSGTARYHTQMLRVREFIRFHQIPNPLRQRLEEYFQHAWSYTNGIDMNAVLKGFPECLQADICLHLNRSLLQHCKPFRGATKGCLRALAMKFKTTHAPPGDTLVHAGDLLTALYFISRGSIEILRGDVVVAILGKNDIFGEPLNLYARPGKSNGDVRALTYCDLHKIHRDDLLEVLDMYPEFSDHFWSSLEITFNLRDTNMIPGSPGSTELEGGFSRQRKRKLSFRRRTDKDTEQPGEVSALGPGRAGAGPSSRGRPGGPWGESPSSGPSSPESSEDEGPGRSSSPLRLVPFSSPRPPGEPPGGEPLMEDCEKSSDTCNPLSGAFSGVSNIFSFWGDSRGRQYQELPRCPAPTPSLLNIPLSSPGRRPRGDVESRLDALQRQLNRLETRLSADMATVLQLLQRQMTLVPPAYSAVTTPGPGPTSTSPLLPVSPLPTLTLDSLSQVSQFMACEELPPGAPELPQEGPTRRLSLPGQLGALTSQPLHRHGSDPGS
Sequence of Cytochrome P450 2C19 (P33261 whole entry): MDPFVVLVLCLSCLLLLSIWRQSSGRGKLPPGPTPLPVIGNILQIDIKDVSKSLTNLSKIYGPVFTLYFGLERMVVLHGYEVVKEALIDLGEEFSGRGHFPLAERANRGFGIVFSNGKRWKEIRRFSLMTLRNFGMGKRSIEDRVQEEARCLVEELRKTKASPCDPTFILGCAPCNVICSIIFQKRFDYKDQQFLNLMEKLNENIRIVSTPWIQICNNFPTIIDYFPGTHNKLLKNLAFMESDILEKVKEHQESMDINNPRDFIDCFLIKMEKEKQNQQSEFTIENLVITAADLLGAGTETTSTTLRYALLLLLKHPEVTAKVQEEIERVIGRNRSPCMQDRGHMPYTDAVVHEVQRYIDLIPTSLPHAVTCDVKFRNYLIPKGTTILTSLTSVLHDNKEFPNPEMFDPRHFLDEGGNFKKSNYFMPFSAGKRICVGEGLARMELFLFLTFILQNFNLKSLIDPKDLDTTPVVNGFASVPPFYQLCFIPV
Sequence of Sphingosine 1-phosphate receptor 3 (Q99500 whole entry): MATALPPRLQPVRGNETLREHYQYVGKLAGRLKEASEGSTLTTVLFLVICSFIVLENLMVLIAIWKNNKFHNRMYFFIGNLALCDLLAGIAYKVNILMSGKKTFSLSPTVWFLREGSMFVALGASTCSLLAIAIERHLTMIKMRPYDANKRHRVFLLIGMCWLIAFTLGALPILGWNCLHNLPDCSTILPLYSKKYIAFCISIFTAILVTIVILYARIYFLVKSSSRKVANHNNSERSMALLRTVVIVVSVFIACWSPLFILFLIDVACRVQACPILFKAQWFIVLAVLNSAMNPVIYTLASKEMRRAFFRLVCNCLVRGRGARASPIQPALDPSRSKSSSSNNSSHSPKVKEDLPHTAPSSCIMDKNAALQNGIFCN
Sequence of Lysophosphatidic acid receptor 5 (Q9H1C0 whole entry): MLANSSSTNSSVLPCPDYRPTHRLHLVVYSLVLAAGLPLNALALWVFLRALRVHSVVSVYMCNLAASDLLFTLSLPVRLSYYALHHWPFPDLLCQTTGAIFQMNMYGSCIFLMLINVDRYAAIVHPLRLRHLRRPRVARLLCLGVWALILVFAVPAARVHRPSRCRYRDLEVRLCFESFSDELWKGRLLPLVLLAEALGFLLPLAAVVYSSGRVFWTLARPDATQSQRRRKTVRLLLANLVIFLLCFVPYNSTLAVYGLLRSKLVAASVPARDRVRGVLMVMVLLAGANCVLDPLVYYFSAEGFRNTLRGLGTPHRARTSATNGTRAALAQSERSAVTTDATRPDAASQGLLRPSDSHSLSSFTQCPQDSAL
Sequence of Cytochrome P450 2C9 (P11712 whole entry): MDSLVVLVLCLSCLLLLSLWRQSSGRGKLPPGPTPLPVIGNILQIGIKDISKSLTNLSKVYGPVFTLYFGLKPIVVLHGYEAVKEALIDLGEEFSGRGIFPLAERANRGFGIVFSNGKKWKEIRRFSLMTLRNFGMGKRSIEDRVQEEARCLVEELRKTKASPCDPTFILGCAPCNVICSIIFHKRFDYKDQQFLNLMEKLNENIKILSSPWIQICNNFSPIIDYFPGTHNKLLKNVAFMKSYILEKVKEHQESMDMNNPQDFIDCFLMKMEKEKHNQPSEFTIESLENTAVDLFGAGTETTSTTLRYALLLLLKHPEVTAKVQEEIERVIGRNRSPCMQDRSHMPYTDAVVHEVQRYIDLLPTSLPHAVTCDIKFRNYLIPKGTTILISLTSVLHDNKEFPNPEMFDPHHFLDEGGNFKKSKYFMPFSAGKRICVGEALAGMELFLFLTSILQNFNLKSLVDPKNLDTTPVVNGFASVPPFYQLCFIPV
Sequence of Sphingosine 1-phosphate receptor 2 (O95136 whole entry): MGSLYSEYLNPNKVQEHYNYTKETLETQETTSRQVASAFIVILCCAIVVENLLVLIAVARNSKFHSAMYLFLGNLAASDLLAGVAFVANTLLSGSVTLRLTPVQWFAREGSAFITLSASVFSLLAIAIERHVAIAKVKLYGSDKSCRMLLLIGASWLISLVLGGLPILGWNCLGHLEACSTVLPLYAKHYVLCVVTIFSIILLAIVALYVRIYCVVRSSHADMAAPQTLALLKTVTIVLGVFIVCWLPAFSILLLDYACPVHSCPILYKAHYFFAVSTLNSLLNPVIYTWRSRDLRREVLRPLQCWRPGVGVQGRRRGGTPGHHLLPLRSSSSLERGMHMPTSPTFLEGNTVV
Sequence of Cytochrome P450 2D6 (P10635 whole entry): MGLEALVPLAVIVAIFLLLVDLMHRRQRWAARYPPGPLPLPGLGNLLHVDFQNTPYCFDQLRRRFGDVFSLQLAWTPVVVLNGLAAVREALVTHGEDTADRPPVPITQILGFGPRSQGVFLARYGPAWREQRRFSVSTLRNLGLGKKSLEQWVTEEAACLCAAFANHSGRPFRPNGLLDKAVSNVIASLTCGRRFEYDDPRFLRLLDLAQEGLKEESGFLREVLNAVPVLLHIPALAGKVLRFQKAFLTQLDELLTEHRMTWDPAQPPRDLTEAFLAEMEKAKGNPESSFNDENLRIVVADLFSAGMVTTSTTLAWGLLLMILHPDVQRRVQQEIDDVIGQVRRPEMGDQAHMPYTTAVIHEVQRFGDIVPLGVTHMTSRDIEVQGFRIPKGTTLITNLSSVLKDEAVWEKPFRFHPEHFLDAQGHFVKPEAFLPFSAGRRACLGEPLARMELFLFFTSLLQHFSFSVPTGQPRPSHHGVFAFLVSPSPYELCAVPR
Sequence of Lysophosphatidic acid receptor 2 (Q9HBW0 whole entry): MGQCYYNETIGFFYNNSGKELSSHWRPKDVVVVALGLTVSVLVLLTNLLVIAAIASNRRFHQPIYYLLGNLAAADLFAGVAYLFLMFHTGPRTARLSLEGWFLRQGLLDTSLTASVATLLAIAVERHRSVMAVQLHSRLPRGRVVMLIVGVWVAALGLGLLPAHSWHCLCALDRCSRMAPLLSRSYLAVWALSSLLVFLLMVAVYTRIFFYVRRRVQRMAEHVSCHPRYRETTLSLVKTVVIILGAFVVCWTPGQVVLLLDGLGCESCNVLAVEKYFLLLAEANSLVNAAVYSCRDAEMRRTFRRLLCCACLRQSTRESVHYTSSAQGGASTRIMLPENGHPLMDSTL
Sequence of Lysophosphatidic acid receptor 1 (Q92633 whole entry): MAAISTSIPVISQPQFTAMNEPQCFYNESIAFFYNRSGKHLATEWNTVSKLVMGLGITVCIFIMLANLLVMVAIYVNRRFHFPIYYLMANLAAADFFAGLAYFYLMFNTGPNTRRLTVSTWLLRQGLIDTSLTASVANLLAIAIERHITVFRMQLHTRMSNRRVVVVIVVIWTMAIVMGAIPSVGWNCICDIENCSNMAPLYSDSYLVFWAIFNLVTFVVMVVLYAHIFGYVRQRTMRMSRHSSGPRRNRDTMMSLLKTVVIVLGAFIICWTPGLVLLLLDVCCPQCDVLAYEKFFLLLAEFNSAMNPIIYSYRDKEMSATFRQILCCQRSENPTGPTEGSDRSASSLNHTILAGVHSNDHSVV

C[C@@H](c1ccc2ccc(O[C@H]3CC[C@@H](C(F)(F)F)CC3)c(C(F)(F)F)c2c1)N1C2CCC1CC(C(=O)O)C2 (stereo not given in full)
IC50 [1]: > 10 µM | Fu [2]: 0.45% | Tmax [3]: 3 h | Fu [4]: 0.66% | IC50 (Cytochrome P450 2C9): > 10 µM | Cmax [5]: 1270 ng/mL | bioavailability [6]: 66% | clearance [7]: 6.09 mL/min/kg | Vd [8]: 2.4 L/kg | AUC(0-t) at 24 h [9]: 3020 ng·h/mL | AUC(0-t) at 24 h [10]: 1390 ng·h/mL | Activity (Rattus norvegicus [11]): Dose-Dependent Effect | Activity (Rattus norvegicus [12]): 48% | concentration at 4 h [13]: 97 ng/mL | Cmax [14]: 813 ng/mL | concentration at 6 h [15]: 42 ng/mL | Vd [16]: 3 L/kg | IC50 [17]: > 10 µM | inhibition at 1 µM (hERG (KCNH2)): 1.4% | IC50 (Cytochrome P450 1A2): > 10 µM | concentration at 6 h [18]: 4.3 ng/mL | half-life [19]: 4 h | Cmax [20]: 1070 ng/mL | IC50 (Cytochrome P450 2D6): > 10 µM | Fu [21]: 0.599% | AUC(0-t) at 24 h [22]: 6590 ng·h/mL | IC50 [23]: > 10 µM | Vd [24]: 2.36 L/kg | IC50 [25]: > 10 µM | Fu [26]: 0.096% | half-life [27]: 14 h | AUC [28]: 8840 ng·h/mL | clearance [29]: 9.3 mL/min/kg | AUC(0-t) at 24 h [30]: 594 ng·h/mL | IC50 (Cytochrome P450 2C19): > 10 µM | IC50 [31]: > 10 µM | Activity (Rattus norvegicus [32]): 61% | clearance [33]: 1.7 mL/min/kg | bioavailability [34]: 51% | AUC(0-t) at 24 h [35]: 8840 ng·h/mL | Cmax [36]: 89 ng/mL | bioavailability [37]: 34% | AUC(0-t) at 24 h [38]: 6170 ng·h/mL | Papp A→B at 2 h [39]: 16.8 ×10⁻⁶ cm/s | half-life [40]: 4.72 h
